The values that follow come from US20260256799A1, “INHIBITORS FOR TREATING SOLID TUMOURS” (UNIVERSITY OF SOUTHAMPTON, priority 2023, published 2026).

This test deals with MC38 cells + TGF-β1-treated murine colon fibroblasts (myoMCF). Kind of test: Isograft model MC38 + myoMCF (myoCAF-high tumours). Particulars: AZD0156, myoCAF-high MC38 tumours. It is filed as in vivo, C57/BL6 female mice. As to the method:
SMA immunohistochemistry (IHC; Sigma Aldrich; A2547) on FFPE tissues was performed as previously: in brief, tissues were fixed in 4% paraformaldehyde and embedded in paraffin. 4 μm sections were de-paraffinized, rehydrated and antigen retrieved for 20 minutes at 97° C. using a predefined program on the Dako PT links. Antigen retrieval was performed using Envision FLEX High pH. Endogenous peroxidase activity was blocked using 3% hydrogen peroxide. Mouse Ig blocking reagent (M.O.M kit vector labs) was applied for 1 hour. Primary antibody incubation (1:100) in M.O.M diluent (vector labs) was for 20 minutes. […] Images were captured using an Olympus CKX41 microscope with Cell B imaging software. % area of staining was calculated using Fiji software (java) by running the ‘color deconvolution’ tool analyzing H DAB. […] The mean was calculated from 2 or 3 mice/experimental group.
Quantification of SMA staining in mouse tumours was carried out using color thresholding and deconvolution in Fiji. […]
CD8 and CD4 IHC was performed on frozen tissue embedded in OCT using [YTS169 (CD8; in house) and RM4-5 (CD4; BD) (FIG. 6c & FIG. 12e). […] CD8 and CD4 T-cells were counted from ten randomly selected fields of view (FoV) from the tumour by a consultant pathologist (GJT). […]

For `CN(C)CCCOc1ccc(-c2ccc3ncc4c(c3c2)n(C2CCOCC2)c(=O)n4C)cn1` [AZD0156], the “CD4 T-cell infiltration (IHC)” value was “unaffected” and the “location of CD8 T-cells, tumour periphery to tumour core (IHC)” value is “significant relocation”.
